Results reported in patent US20080118529A1 (priority 2005, published 2008).

What was measured:
tPA = type: biochemical, human
factor XII [1] = biological target: T1, factor XII (Homo sapiens, UniProt P00748); type: biochemical
U937 monocytes = type: cell-based, human; settings: 1 h
factor XII [2] = biological target: T1, factor XII; type: biochemical; remark: listed apart in the source
OVA = tested on: OVA; parameters: species or system chicken; settings: in vivo
DOVA = tested on: DOVA; parameters: species or system chicken; settings: in vivo
nOVA = tested on: nOVA; parameters: species or system Balb/c mice; settings: mouse, in vivo
nOVA, sequence (P01012 whole entry): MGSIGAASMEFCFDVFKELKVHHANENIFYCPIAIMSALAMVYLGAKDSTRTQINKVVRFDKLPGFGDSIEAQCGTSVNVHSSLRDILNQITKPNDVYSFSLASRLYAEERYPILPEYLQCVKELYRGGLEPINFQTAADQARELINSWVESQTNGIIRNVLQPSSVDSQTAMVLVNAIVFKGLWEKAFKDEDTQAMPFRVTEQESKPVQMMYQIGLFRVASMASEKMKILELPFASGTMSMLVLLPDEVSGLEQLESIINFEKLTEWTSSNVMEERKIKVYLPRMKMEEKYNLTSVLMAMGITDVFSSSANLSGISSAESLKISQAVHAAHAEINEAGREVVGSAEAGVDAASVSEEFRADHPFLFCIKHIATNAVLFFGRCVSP

T1 sequence (P00748 20-615): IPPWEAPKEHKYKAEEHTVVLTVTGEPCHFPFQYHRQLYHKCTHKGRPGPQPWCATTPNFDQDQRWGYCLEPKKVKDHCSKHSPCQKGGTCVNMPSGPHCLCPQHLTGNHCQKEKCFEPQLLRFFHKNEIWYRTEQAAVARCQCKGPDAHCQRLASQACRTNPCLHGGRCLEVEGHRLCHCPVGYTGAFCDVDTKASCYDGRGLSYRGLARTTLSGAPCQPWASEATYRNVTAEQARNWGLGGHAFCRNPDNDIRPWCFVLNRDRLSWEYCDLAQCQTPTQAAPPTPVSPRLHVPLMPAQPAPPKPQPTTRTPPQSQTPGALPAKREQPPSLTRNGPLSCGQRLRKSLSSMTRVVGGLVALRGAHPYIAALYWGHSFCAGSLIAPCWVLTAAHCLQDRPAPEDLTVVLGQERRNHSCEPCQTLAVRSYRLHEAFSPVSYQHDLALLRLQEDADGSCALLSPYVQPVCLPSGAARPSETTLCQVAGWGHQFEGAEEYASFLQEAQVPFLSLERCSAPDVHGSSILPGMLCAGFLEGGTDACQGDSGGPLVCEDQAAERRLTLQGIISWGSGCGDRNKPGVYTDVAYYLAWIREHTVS

Compound: CCCCCCCCCCCCCCCCCC[N+](C)(C)CCCCCCCCCCCCCCCCCC.[Br-] [DDA, dimethyl dioctadecyl ammonium bromide]
- activation of tPA by adjuvants (tPA): activators of tPA

Compound: Cc1ccc2c(c1)sc(-c1ccc(N(C)C)cc1)[n+]2C.[Cl-] [ThT, Thioflavin T]
- inhibition of factor XII activation by DXS500k and 80× diluted plasma (factor XII [1]): fully inhibited
- inhibition of the stimulatory activity of FP13 K157G on factor XII autoactivation (factor XII [1]): effectively inhibits

Compound: Endostatin
- TNFα RNA expression compared to LPS (U937 monocytes; 100 μg/ml amyloid endostatin, 260 μg/ml Hb-AGE, 1 μg/ml LPS, normalized to 18S): approximately 30%

Compound: Etanercept [Native Etanercept]
- tPA/plasminogen activating potential of protein/antigen preparation (tPA): some tPA activation

Compound: control Hb: control haemoglobin, not glycated
- TNFα RNA expression relative to endostatin and Hb-AGE (U937 monocytes; 260 μg/ml): approximately threefold lower
- TNFα RNA upregulation relative to values after amyloid endostatin or glycated Hb stimulation (U937 monocytes; 260 μg/ml): ≤ 30%

Compound: dextran-sulphate [DXS500k]
- activation of factor XII in the presence of prekallikrein and high molecular weight kininogen (factor XII [2]): only then effectively activated
- factor XII activation by DXS500k (factor XII [1]): only a stimulatory factor for factor XII activation when 80× diluted plasma is present
- activation of tPA by adjuvants (tPA): activators of tPA

Compound: glucagon [native glucagon]
- tPA/plasminogen activating potential of protein/antigen preparation (tPA): some tPA activating potential

Compound: ovalbumin [nOVA]
- anti-OVA titer (OVA): can not elicit
- anti-DOVA titer (DOVA): can not elicit
- anti-nOVA titer after one week (nOVA): no titer was detected
- titer of anti-nOVA antibodies (nOVA): 610
